Source: ChEMBL document CHEMBL1139651, “Antiarrhythmic activity of 4,6-di(het)aryl-5-nitro-3,4-dihydropyrimidin-(1H)-2-ones and its effects on arterial pressure in rats” (2006)

Tested on: Rattus norvegicus
Assay: Antiarrhythmic activity in iv dosed rat
Assay type: functional
Conditions: Heart; for minimal effective dose: read-out: MED

Molecule O=C1NC(c2ccccc2)=C([N+](=O)[O-])C(c2cccc([N+](=O)[O-])c2)N1 (stereo not given) has an LD50 greater than 1000 mg/kg and a minimal effective dose of 0.045 µg/kg.
With O=C1NC(c2ccccc2)=C([N+](=O)[O-])C(c2cccs2)N1 (stereo not given) the LD50 was greater than 1000 mg/kg and the minimal effective dose was 3500 µg/kg.
Molecule O=C1NC(c2ccccc2)=C([N+](=O)[O-])C(c2cccc(F)c2)N1 (stereo not given) has an LD50 greater than 5000 mg/kg and a minimal effective dose of 0.35 µg/kg.
In the case of O=C1NC(c2ccccc2)=C([N+](=O)[O-])C(c2ccccc2)N1 (stereo not given), the LD50 is reported as greater than 5000 mg/kg and the minimal effective dose is reported as 35 µg/kg.
O=C1NC(c2ccccc2)=C([N+](=O)[O-])C(c2ccc(O)cc2)N1 (stereo not given) showed an LD50 greater than 5000 mg/kg and a minimal effective dose of 35 µg/kg.
O=C1NC(c2ccccc2)=C([N+](=O)[O-])C(c2cccnc2)N1 (stereo not given) was tested, and the LD50 was greater than 1000 mg/kg and the minimal effective dose was 35 µg/kg.
For COC(=O)C1=C(C)NC(C)=C(C(=O)OC)C1c1ccccc1[N+](=O)[O-] [NIFEDIPINE], the LD50 was 210 mg/kg and the minimal effective dose was 3500 µg/kg.
With COc1ccc(CCN(C)CCCC(C#N)(c2ccc(OC)c(OC)c2)C(C)C)cc1OC (stereo not given) the ED50 was 1.1 mg/kg.
